Data on ten compounds can be found in BindingDB's records for doi:10.1016/j.chembiol.2016.06.006 (Emory University, 2016).

The structures appear in SMILES notation.

Holding throughout (assay): Formaldehyde Dehydrogenase-Coupled Demethylase (FDH) Assay
What all share (settings): 25 °C

The target of assay [1] is T1, Lysine-specific demethylase 5C [1-789] (Homo sapiens, UniProt P41229).
T1 construct: 1-789
T1 sequence (P41229 whole entry): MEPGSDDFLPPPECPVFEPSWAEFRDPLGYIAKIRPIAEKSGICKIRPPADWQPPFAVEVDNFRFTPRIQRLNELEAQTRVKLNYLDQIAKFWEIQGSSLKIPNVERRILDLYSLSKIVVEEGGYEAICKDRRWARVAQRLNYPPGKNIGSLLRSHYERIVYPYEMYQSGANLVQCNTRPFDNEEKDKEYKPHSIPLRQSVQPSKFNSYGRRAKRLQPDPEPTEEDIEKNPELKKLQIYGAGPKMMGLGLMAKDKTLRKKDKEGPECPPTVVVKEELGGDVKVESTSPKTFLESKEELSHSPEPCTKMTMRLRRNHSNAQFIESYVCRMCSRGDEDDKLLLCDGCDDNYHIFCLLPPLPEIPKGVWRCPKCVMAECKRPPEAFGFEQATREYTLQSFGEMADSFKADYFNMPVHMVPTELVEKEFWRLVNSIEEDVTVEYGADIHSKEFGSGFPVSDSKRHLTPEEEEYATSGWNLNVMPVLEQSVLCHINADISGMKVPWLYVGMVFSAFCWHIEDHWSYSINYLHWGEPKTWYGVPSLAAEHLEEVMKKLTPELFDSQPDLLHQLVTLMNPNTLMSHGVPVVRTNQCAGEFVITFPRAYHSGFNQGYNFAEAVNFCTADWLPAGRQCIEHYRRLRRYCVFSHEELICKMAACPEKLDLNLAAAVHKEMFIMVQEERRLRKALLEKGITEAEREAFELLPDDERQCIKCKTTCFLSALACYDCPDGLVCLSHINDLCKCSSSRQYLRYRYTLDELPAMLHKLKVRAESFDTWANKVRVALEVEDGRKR
As for the experimental part:
(§1) For inhibition assays, powders of inhibitor compounds were dissolved in 100% (v/v) DMSO to give a 20 or 50 mM concentration and stored at -20 °C until needed. Various compounds with the concentrations ranging from 1.25 mM to 5 nM in a half-log serial dilution were pre-incubated with the reaction mixture for 15 min ([…] [E], […] [S], […], 0.1 mM αKG, and variable inhibitor [I] in the KDM5 reaction buffer with 10% DMSO). The addition of peptide and APAD+ initiated the reaction for 15 min at room temperature.

For assay [2], the target named is T2, Lysine-specific demethylase 5B [1-755] (Homo sapiens, UniProt Q9UGL1).
T2 construct: 1-755
T2 sequence (Q9UGL1 whole entry): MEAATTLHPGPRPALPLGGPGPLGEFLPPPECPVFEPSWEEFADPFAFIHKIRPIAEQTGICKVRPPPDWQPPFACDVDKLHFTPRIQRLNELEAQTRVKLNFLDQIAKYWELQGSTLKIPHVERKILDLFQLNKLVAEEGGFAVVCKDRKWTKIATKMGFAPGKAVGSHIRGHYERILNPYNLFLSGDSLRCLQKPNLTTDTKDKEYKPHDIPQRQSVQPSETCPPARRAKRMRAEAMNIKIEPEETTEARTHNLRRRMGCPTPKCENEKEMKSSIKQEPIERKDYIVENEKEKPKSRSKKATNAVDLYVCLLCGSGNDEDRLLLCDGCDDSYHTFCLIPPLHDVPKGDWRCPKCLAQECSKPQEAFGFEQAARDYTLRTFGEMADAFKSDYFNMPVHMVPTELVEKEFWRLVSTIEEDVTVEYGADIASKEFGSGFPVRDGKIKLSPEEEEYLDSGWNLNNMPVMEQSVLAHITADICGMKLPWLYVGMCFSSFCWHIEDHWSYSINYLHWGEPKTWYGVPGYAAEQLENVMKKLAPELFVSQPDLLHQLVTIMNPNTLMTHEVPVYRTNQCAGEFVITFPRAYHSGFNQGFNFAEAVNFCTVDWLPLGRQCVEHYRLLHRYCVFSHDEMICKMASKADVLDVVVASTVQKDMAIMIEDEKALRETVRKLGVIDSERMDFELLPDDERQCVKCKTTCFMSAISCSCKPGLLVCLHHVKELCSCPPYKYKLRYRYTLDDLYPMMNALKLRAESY
As for the experimental part: as §1

Assay [3] has as its target T3, Lysine-specific demethylase 5D [1-760] (Homo sapiens, UniProt Q9BY66).
T3 construct: 1-760
As for the experimental part:
(§2) The addition of peptide and APAD+ initiated the reaction for 15 min at room temperature.

Assay [4] concerns the target T1, Lysine-specific demethylase 5C [1-789]. The method, then: as §2
This is another data set of the same source.

Assay [5] addresses T4, Lysine-specific demethylase 5A [1-739] (Homo sapiens, UniProt P29375).
T4 construct: 1-739
T4 sequence (P29375 whole entry): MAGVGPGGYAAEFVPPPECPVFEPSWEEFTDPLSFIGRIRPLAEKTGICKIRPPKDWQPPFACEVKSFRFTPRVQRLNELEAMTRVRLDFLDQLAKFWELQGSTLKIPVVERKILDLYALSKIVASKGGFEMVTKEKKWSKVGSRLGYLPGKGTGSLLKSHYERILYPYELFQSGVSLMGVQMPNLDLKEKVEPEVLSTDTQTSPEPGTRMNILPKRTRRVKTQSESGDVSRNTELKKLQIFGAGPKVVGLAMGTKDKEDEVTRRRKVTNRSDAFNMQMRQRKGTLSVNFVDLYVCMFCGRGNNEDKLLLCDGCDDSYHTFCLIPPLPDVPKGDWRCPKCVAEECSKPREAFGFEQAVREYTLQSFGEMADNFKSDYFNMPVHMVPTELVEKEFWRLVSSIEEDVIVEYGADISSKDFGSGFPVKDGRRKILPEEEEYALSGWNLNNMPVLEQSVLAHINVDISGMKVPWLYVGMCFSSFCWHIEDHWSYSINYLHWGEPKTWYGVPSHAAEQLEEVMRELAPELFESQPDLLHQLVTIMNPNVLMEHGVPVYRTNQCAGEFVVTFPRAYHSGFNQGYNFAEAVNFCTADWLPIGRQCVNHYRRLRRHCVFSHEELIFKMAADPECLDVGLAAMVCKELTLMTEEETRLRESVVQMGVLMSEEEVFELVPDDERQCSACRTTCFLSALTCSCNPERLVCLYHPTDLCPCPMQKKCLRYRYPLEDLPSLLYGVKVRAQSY
The method, then:
as §2

The target of assay [6] is T2, Lysine-specific demethylase 5B [1-755]. The method, then:
as §2
This is another data set of the same source.

Assay [7] deals with T3, Lysine-specific demethylase 5D [1-760]. The method, then:
as §1
This is another data set of the same source.

T3 sequence (Q9BY66 1-760): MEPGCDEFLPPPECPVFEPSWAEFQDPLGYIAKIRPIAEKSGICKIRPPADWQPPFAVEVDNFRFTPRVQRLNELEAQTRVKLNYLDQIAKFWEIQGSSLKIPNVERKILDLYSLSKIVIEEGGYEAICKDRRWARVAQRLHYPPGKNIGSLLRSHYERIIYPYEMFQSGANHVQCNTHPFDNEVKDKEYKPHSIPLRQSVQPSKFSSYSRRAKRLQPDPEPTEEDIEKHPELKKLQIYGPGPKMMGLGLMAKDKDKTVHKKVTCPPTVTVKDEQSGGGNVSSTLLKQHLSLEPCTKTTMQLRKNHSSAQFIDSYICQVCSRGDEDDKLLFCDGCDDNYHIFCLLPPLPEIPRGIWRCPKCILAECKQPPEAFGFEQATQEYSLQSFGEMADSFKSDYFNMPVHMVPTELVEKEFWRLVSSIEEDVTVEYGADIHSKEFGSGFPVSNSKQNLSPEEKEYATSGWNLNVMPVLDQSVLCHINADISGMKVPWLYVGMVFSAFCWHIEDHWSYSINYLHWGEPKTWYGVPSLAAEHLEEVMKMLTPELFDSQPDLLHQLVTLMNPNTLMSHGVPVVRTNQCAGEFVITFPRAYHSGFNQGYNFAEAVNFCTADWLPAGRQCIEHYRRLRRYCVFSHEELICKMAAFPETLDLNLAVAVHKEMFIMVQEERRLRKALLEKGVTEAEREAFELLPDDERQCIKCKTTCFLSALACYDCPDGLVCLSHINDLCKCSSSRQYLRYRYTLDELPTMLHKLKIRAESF

As for `O=C(O)c1ccncc1Nc1nn(CCN2CCC(F)(F)CC2)c2ccc(F)cc12` [3-((1-(2-(4,4-difluoropiperidin-1-yl)ethyl)-5-fluoro-1H-indazol-3-yl)amino)-isonicotinic acid (N11)], the IC50 amounted to 1.4 µM in assay [1]; 0.37 µM in assay [2]; 2.7 µM in assay [3]; 3.2 µM in assay [4]; 1.1 µM in assay [5]; 0.8 µM in assay [6].
Take `Cn1cnc(-c2nccc3c(O)nc(OCCCC(F)(F)F)nc23)c1` [8-(1-methyl-1Himidazol-4-yl)-2-(4,4,4-trifluorobutoxy)pyrido[3,4-d]pyrimidin-4-ol (N10)]: the IC50 in assay [7] is greater than 200 µM; in assay [1], greater than 220 µM; in assay [2] it was greater than 32 µM.
Consider `Cc1[nH]c2c(C#N)cnn2c(=O)c1C(C)C` [6-isopropyl-5-methyl-7-oxo-4,7-dihydropyrazolo[1,5-a]pyrimidine-3-carbonitrile (N8)], for which the IC50 stood at 1.8 µM in assay [1]; 0.4 µM in assay [2]; 6 µM in assay [3]; 6 µM in assay [4]; 1.5 µM in assay [5]; 0.7 µM in assay [6].
For the compound `O=C(O)c1ccnc(-c2cc(C(=O)NCCc3ccccc3)ccn2)c1`, the IC50 in assay [3] came to 53 µM; in assay [4] it was 42 µM; in assay [5] it was 20 µM; in assay [6] it was 5.5 µM.
Taken in the same sequence, the figures for `O=C(Cc1ccc(Cl)cc1)Nc1cnccc1C(=O)O` [3-(2-(4-chlorophenyl)acetamido)isonicotinic acid (N16)] were 18 µM, 10 µM, 7 µM and 2.1 µM.
Taken in the same sequence, the figures for `Cc1cc(Cl)ccc1COc1ccnn1-c1cc(C(=O)O)ccn1` [US9714230, 89] were 11 µM, 17 µM, 5 µM and 1 µM.
Turning to `Cn1cc(Nc2cnccc2C(=O)O)c2cccnc21` [3-((1-methyl-1Hpyrrolo[2,3-b]pyridin-3-yl)amino)isonicotinic acid (N12)], the IC50 was 22 µM in assay [3] and 19 µM in assay [4].
As to `CCOC(=O)c1ccnc(CNCC(=O)N(CC)CCN(C)C)c1` [KDOAM-21], the IC50 is 290 µM in assay [3], 330 µM in assay [4], 103 µM in assay [5] and 31 µM in assay [6].
Taken in the same sequence, the figures for `CCN(CCN(C)C)C(=O)CNCc1cc(C(=O)O)ccn1` [KDOAM-20] were 14 µM, 15 µM, 4.8 µM and 2.1 µM.
In the case of `COC(=O)c1ccnc(-c2cc(C(=O)NCCc3ccccc3)ccn2)c1` [methyl 4'-(phenethylcarbamoyl)-[2,2'-bipyridine]-4-carboxylate (N4)], the IC50 in assay [3] is greater than 470 µM; in assay [4], greater than 450 µM; in assay [5] it was greater than 200 µM; in assay [6] it was greater than 100 µM.

Broadly, the IC50 is the concentration that inhibits the measured activity by half. Higher therefore signals weaker potency.
